In patent US20200197320A1, “DRUG CARRIER AND DRUG DELIVERY SYSTEM THEREOF” (NATIONAL TSING HUA UNIVERSITY, priority 2018, published 2020):

Test system: MDA-MB-231 human breast cancer cells
Assay: Material cytotoxicity by MTT assay
Details: under the condition of the present disclosure, including products after UV irradiation
Experimental: Then the drug delivery systems of Example 1 with different concentrations are tested for their cytotoxicity. […] The MDA-MB-231 human breast cancer cells are treated with 0.1, 1, 2, 5, 10 and 20 μg/mL of the drug delivery system of Example 1 for 6 hours, respectively, and then further incubated for another 24 hours. The cell viability is measured by the MTT assay.

## OCc1ccc2ccc3cccc4ccc1c2c34 [pyrenemethanol]
  harm to the cells: not harmful
